Measurements published in patent publication US12660819B2, “Herbicidal derivatives” (SYNGENTA CROP PROTECTION AG, priority 2020, dated 2026).

Columns and labels:
Format in all cases: in vivo
[1] = tested on: Echinochloa crus-galli (ECHCG); test: Pre-emergence Test (glasshouse, percentage damage to the plant); settings: 1000 g/ha unless otherwise stated, five-point scale
[2] = tested on: Setaria faberi (SETFA); test: Post-emergence Test (glasshouse, percentage damage to the plant); settings: post-emergence spray, 1000 g/ha unless otherwise stated, evaluated after 13 days
Summary of the method: (§1)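 Spray treatment of sown glasshouse pots at 1000 g/ha (default rate), vehicle acetone/water 50:50 plus 0.5% Tween 20. Read-out: percentage damage after 13 days, converted to a score where 5 denotes 81-100% and 1 denotes 0-20%.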

[3] = tested on: Amaranthus retoflexus (AMARE); test: as above; settings: post-emergence spray, 1000 g/ha unless otherwise stated, evaluated after 13 days
Summary of the method: (§2)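 Rate 1000 g/ha unless stated otherwise. Vehicle: acetone/water 50:50 with 0.5% Tween 20, diluted into aqueous spray. Timing: spray after sowing, read 13 days later. Score: 5=81-100%, 4=61-80%, 3=41-60%, 2=21-40%, 1=0-20% damage.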

[4] = tested on: Ipomoea hederacea (IPOHE); test: as above; settings: post-emergence spray, 1000 g/ha unless otherwise stated, evaluated after 13 days
Summary of the method: as §1

[5] = tested on: Zea mays (ZEAMX); test: as above; settings: post-emergence spray, 1000 g/ha unless otherwise stated, evaluated after 13 days
Summary of the method: as §1

[6] = tested on: Echinochloa crus-galli (ECHCG); test: as above; settings: post-emergence spray, 1000 g/ha unless otherwise stated, evaluated after 13 days
Summary of the method: as §2

[7] = tested on: Abutilon theophrasti (ABUTH); test: as above; settings: post-emergence spray, 1000 g/ha unless otherwise stated, evaluated after 13 days
Summary of the method: as §2

[8] = tested on: Abutilon theophrasti (ABUTH); test: Pre-emergence Test (glasshouse, percentage damage to the plant); settings: 1000 g/ha unless otherwise stated, five-point scale
[9] = tested on: Setaria faberi (SETFA); test: as above; settings: 1000 g/ha unless otherwise stated, five-point scale
[10] = tested on: Amaranthus retoflexus (AMARE); test: as above; settings: 1000 g/ha unless otherwise stated, five-point scale
[11] = tested on: Zea mays (ZEAMX); test: as above; settings: 1000 g/ha unless otherwise stated, five-point scale
[12] = tested on: Ipomoea hederacea (IPOHE); test: as above; settings: 1000 g/ha unless otherwise stated, five-point scale

CCn1c(C)c(-c2cncc(F)c2)c(=O)c(C(=O)O)c1-c1ccc(Cl)c(Cl)c1 [Compound 85, 2-(3,4-dichlorophenyl)-1-ethyl-5-(5-fluoro-3-pyridyl)-6-methyl-4-oxo-pyridine-3-carboxylic acid]
percentage damage to the plant, ECHCG [1]: 1 (1=0-20%) | Post-emergence Test SETFA, percentage damage to the plant (five-point scale) [2]: 3 (3=41-60%) | Post-emergence Test AMARE, percentage damage to the plant (five-point scale) [3]: 1 (1=0-20%) | Post-emergence Test IPOHE, percentage damage to the plant (five-point scale) [4]: 1 (1=0-20%) | Post-emergence Test ZEAMX, percentage damage to the plant (five-point scale) [5]: 1 (1=0-20%) | Post-emergence Test ECHCG, percentage damage to the plant (five-point scale) [6]: 1 (1=0-20%) | Post-emergence Test ABUTH, percentage damage to the plant (five-point scale) [7]: 3 (3=41-60%) | percentage damage to the plant, ABUTH [8]: 2 (2=21-40%) | percentage damage to the plant, SETFA [9]: 4 (4=61-80%) | percentage damage to the plant, AMARE [10]: 1 (1=0-20%) | percentage damage to the plant, ZEAMX [11]: 1 (1=0-20%) | percentage damage to the plant, IPOHE [12]: 1 (1=0-20%)

CCn1c(C)c(-c2ccc(Cl)cc2OC)c(=O)c(C(=O)O)c1-c1ccc(Cl)c(Cl)c1 [Compound 154, 5-(4-chloro-2-methoxy-phenyl)-2-(3,4-dichlorophenyl)-1-ethyl-6-methyl-4-oxo-pyridine-3-carboxylic acid]
percentage damage to the plant, ECHCG [1]: 5 (5=81-100%) | Post-emergence Test SETFA, percentage damage to the plant (five-point scale) [2]: 4 (4=61-80%) | Post-emergence Test AMARE, percentage damage to the plant (five-point scale) [3]: 4 (4=61-80%) | Post-emergence Test IPOHE, percentage damage to the plant (five-point scale) [4]: 4 (4=61-80%) | Post-emergence Test ZEAMX, percentage damage to the plant (five-point scale) [5]: 3 (3=41-60%) | Post-emergence Test ECHCG, percentage damage to the plant (five-point scale) [6]: 4 (4=61-80%) | Post-emergence Test ABUTH, percentage damage to the plant (five-point scale) [7]: 4 (4=61-80%) | percentage damage to the plant, ABUTH [8]: 3 (3=41-60%) | percentage damage to the plant, SETFA [9]: 4 (4=61-80%) | percentage damage to the plant, AMARE [10]: 1 (1=0-20%) | percentage damage to the plant, ZEAMX [11]: 2 (2=21-40%) | percentage damage to the plant, IPOHE [12]: 3 (3=41-60%)

CCOC(=O)c1c(-c2ccc(F)cc2F)n(CC)c(C)c(-c2ccc(Cl)cc2)c1=O [Compound 134, ethyl 5-(4-chlorophenyl)-2-(2,4-difluorophenyl)-1-ethyl-6-methyl-4-oxo-pyridine-3-carboxylate]
percentage damage to the plant, ECHCG [1]: 0 | Post-emergence Test SETFA, percentage damage to the plant (five-point scale) [2]: 4 (4=61-80%) | Post-emergence Test AMARE, percentage damage to the plant (five-point scale) [3]: 3 (3=41-60%) | Post-emergence Test IPOHE, percentage damage to the plant (five-point scale) [4]: 3 (3=41-60%) | Post-emergence Test ZEAMX, percentage damage to the plant (five-point scale) [5]: 3 (3=41-60%) | Post-emergence Test ECHCG, percentage damage to the plant (five-point scale) [6]: 4 (4=61-80%) | Post-emergence Test ABUTH, percentage damage to the plant (five-point scale) [7]: 3 (3=41-60%) | percentage damage to the plant, ABUTH [8]: 1 (1=0-20%) | percentage damage to the plant, SETFA [9]: 0 | percentage damage to the plant, AMARE [10]: 1 (1=0-20%) | percentage damage to the plant, ZEAMX [11]: 0 | percentage damage to the plant, IPOHE [12]: 0

CCn1c(C)c(-c2cccc(C(F)F)c2)c(=O)c(C(=O)O)c1-c1ccc(Cl)c(Cl)c1 [Compound 106, 2-(3,4-dichlorophenyl)-5-[3-(difluoromethyl)phenyl]-1-ethyl-6-methyl-4-oxo-pyridine-3-carboxylic acid]
percentage damage to the plant, ECHCG [1]: 1 (1=0-20%) | Post-emergence Test SETFA, percentage damage to the plant (five-point scale) [2]: 1 (1=0-20%) | Post-emergence Test AMARE, percentage damage to the plant (five-point scale) [3]: 3 (3=41-60%) | Post-emergence Test IPOHE, percentage damage to the plant (five-point scale) [4]: 2 (2=21-40%) | Post-emergence Test ZEAMX, percentage damage to the plant (five-point scale) [5]: 1 (1=0-20%) | Post-emergence Test ECHCG, percentage damage to the plant (five-point scale) [6]: 1 (1=0-20%) | Post-emergence Test ABUTH, percentage damage to the plant (five-point scale) [7]: 3 (3=41-60%) | percentage damage to the plant, ABUTH [8]: 2 (2=21-40%) | percentage damage to the plant, SETFA [9]: 1 (1=0-20%) | percentage damage to the plant, AMARE [10]: 1 (1=0-20%) | percentage damage to the plant, ZEAMX [11]: 1 (1=0-20%) | percentage damage to the plant, IPOHE [12]: 1 (1=0-20%)

CCn1c(C)c(-c2ccc(OC)c(Cl)c2)c(=O)c(C(=O)O)c1-c1ccc(Cl)c(Cl)c1 [Compound 101, 5-(3-chloro-4-methoxy-phenyl)-2-(3,4-dichlorophenyl)-1-ethyl-6-methyl-4-oxo-pyridine-3-carboxylic acid]
percentage damage to the plant, ECHCG [1]: 2 (2=21-40%) | Post-emergence Test SETFA, percentage damage to the plant (five-point scale) [2]: 3 (3=41-60%) | Post-emergence Test AMARE, percentage damage to the plant (five-point scale) [3]: 3 (3=41-60%) | Post-emergence Test IPOHE, percentage damage to the plant (five-point scale) [4]: 2 (2=21-40%) | Post-emergence Test ZEAMX, percentage damage to the plant (five-point scale) [5]: 2 (2=21-40%) | Post-emergence Test ECHCG, percentage damage to the plant (five-point scale) [6]: 3 (3=41-60%) | Post-emergence Test ABUTH, percentage damage to the plant (five-point scale) [7]: 3 (3=41-60%) | percentage damage to the plant, ABUTH [8]: 2 (2=21-40%) | percentage damage to the plant, SETFA [9]: 4 (4=61-80%) | percentage damage to the plant, AMARE [10]: 2 (2=21-40%) | percentage damage to the plant, ZEAMX [11]: 2 (2=21-40%) | percentage damage to the plant, IPOHE [12]: 1 (1=0-20%)

CCn1c(C)c(-c2cccc(OC)n2)c(=O)c(C(=O)O)c1-c1ccc(Cl)c(Cl)c1 [Compound 113, 2-(3,4-dichlorophenyl)-1-ethyl-5-(6-methoxy-2-pyridyl)-6-methyl-4-oxo-pyridine-3-carboxylic acid]
percentage damage to the plant, ECHCG [1]: 1 (1=0-20%) | Post-emergence Test SETFA, percentage damage to the plant (five-point scale) [2]: 4 (4=61-80%) | Post-emergence Test AMARE, percentage damage to the plant (five-point scale) [3]: 3 (3=41-60%) | Post-emergence Test IPOHE, percentage damage to the plant (five-point scale) [4]: 2 (2=21-40%) | Post-emergence Test ZEAMX, percentage damage to the plant (five-point scale) [5]: 2 (2=21-40%) | Post-emergence Test ECHCG, percentage damage to the plant (five-point scale) [6]: 3 (3=41-60%) | Post-emergence Test ABUTH, percentage damage to the plant (five-point scale) [7]: 4 (4=61-80%) | percentage damage to the plant, ABUTH [8]: 3 (3=41-60%) | percentage damage to the plant, SETFA [9]: 4 (4=61-80%) | percentage damage to the plant, AMARE [10]: 1 (1=0-20%) | percentage damage to the plant, ZEAMX [11]: 2 (2=21-40%) | percentage damage to the plant, IPOHE [12]: 2 (2=21-40%)

CCn1c(C)c(-c2ccc(C(F)(F)F)nc2)c(=O)c(C(=O)O)c1-c1ccc(Cl)c(Cl)c1 [Compound 108, 2-(3,4-dichlorophenyl)-1-ethyl-6-methyl-4-oxo-5-[6-(trifluoromethyl)-3-pyridyl]pyridine-3-carboxylic acid]
percentage damage to the plant, ECHCG [1]: 1 (1=0-20%) | Post-emergence Test SETFA, percentage damage to the plant (five-point scale) [2]: 3 (3=41-60%) | Post-emergence Test AMARE, percentage damage to the plant (five-point scale) [3]: 2 (2=21-40%) | Post-emergence Test IPOHE, percentage damage to the plant (five-point scale) [4]: 2 (2=21-40%) | Post-emergence Test ZEAMX, percentage damage to the plant (five-point scale) [5]: 2 (2=21-40%) | Post-emergence Test ECHCG, percentage damage to the plant (five-point scale) [6]: 2 (2=21-40%) | Post-emergence Test ABUTH, percentage damage to the plant (five-point scale) [7]: 2 (2=21-40%) | percentage damage to the plant, ABUTH [8]: 1 (1=0-20%) | percentage damage to the plant, SETFA [9]: 3 (3=41-60%) | percentage damage to the plant, AMARE [10]: 1 (1=0-20%) | percentage damage to the plant, ZEAMX [11]: 1 (1=0-20%) | percentage damage to the plant, IPOHE [12]: 1 (1=0-20%)

CCn1c(C)c(-c2ccc(Cl)cc2F)c(=O)c(C(=O)O)c1-c1ccc(Cl)c(Cl)c1 [Compound 153, 5-(4-chloro-2-fluoro-phenyl)-2-(3,4-dichlorophenyl)-1-ethyl-6-methyl-4-oxo-pyridine-3-carboxylic acid]
percentage damage to the plant, ECHCG [1]: 5 (5=81-100%) | Post-emergence Test SETFA, percentage damage to the plant (five-point scale) [2]: 5 (5=81-100%) | Post-emergence Test AMARE, percentage damage to the plant (five-point scale) [3]: 5 (5=81-100%) | Post-emergence Test IPOHE, percentage damage to the plant (five-point scale) [4]: 5 (5=81-100%) | Post-emergence Test ZEAMX, percentage damage to the plant (five-point scale) [5]: 5 (5=81-100%) | Post-emergence Test ECHCG, percentage damage to the plant (five-point scale) [6]: 5 (5=81-100%) | Post-emergence Test ABUTH, percentage damage to the plant (five-point scale) [7]: 5 (5=81-100%) | percentage damage to the plant, ABUTH [8]: 5 (5=81-100%) | percentage damage to the plant, SETFA [9]: 5 (5=81-100%) | percentage damage to the plant, AMARE [10]: 5 (5=81-100%) | percentage damage to the plant, ZEAMX [11]: 4 (4=61-80%) | percentage damage to the plant, IPOHE [12]: 4 (4=61-80%)

CCn1c(C)c(-c2ccc(C(C)(C)C)cc2)c(=O)c(C(=O)O)c1-c1ccc(Cl)c(Cl)c1 [Compound 55, 5-(4-tert-butylphenyl)-2-(3,4-dichlorophenyl)-1-ethyl-6-methyl-4-oxo-pyridine-3-carboxylic acid]
percentage damage to the plant, ECHCG [1]: 1 (1=0-20%) | Post-emergence Test SETFA, percentage damage to the plant (five-point scale) [2]: 1 (1=0-20%) | Post-emergence Test AMARE, percentage damage to the plant (five-point scale) [3]: 1 (1=0-20%) | Post-emergence Test IPOHE, percentage damage to the plant (five-point scale) [4]: 1 (1=0-20%) | Post-emergence Test ZEAMX, percentage damage to the plant (five-point scale) [5]: 1 (1=0-20%) | Post-emergence Test ECHCG, percentage damage to the plant (five-point scale) [6]: 1 (1=0-20%) | Post-emergence Test ABUTH, percentage damage to the plant (five-point scale) [7]: 1 (1=0-20%) | percentage damage to the plant, ABUTH [8]: 1 (1=0-20%) | percentage damage to the plant, SETFA [9]: 1 (1=0-20%) | percentage damage to the plant, AMARE [10]: 1 (1=0-20%) | percentage damage to the plant, ZEAMX [11]: 1 (1=0-20%) | percentage damage to the plant, IPOHE [12]: 1 (1=0-20%)
